# Source: patent publication US8465939B2, “Aging-related circulating particle-associated lipoprotein B oxidase (apoBNOX) and inhibitors thereof” (Nox Technologies, Inc., priority 2010, dated 2013)
# “Also recorded” adds a separate entry of the source.
# Assays:
# [1] = system: apoBNOX; assay: superoxide dismutase-resistant apoBNOX activity by ferricytochrome c reduction; assay type: biochemical; details: for inhibition of apoBNOX: apoBNOX associated with lipoprotein particles
# Description: Reduction of ferricytochrome c by superoxide was employed as the measure of superoxide dismutase-resistant apoBNOX activity (Mayo, L. A. and Curnutte, J., 1990, Meth. Enzyme. 186: 567-575; Butler, J. et al., 1982, J. Biol. Chem. 257: 10747-10750). The assay consists of 150 μl buffy coats in PBSG buffer (8.06 g NaCl, 0.2 g KCl, 0.18 g Na2HPO4, 0.13 g CaCl2, 0.1 MgCl2, 1.35 g glucose dissolved in 1000 ml deionized water, adjusted to pH 7.4, filtered and stored at 4° C.). Rates were determined using an SLM Aminco DW-2000 spectrophotometer (Milton Roy, Rochester, N.Y.) in the dual wave length mode of operation with continuous measurements over 1 min every 1.5 min. After 45 min, test compounds were added and the reaction was continued for an additional 45 min. After 45 min, a millimolar extinction coefficient of […] was used for reduced ferricytochrome c.
# arNOX activity was assayed from measurements of superoxide production based on a standard method where reduction of ferricytochrome c was monitored from the increase in absorbance at 550 nm with reference at 540 nm (Butler et al., 1982). As a further check for the specificity of the apoBNOX activity, 60 units of superoxide dismutase (SOD) were added near the end of the assay to ascertain that the rate returned to base line. Rates were determined over 1 min at intervals of 1.5 min using a SLM Aminco DW 2000 spectrophotometer (Milton Roy, Rochester, N.Y.) in the dual wavelength mode of operation. An extinction coefficient of 19.1 mM^−1 cm^−1 was used for reduced ferricytochrome c.
# [2] = system: arNOX; details: cited from earlier work
# [3] = Hydrophilicity / solubility; assay type: physicochemical
# Excerpt: (§1) This last characteristic might be problematic if hydroxytyrosol or tyrosol are pretended to be used in fat-based food products or supplements. Oxidation of hydroxytyrosol and tyrosol clearly affect the stability and preservation of both compounds. The hydroxytyrosol and tyrosol derivatives presented in this invention avoid these two problems. The hydroxyl groups on these derivatives are protected from oxidation by preparing hydroxytyrosol or tyrosol fatty acid esters. When compared to hydroxytyrosol and tyrosol, the hydroxytyrosol and tyrosol fatty acid esters are much more resistant against oxidation. At the same time, depending on the length of the fatty acid chain of the fatty acid esters, their solubility in fat-based food products will be increased. Hydroxytyrosol or tyrosol esters with a wide range of solubilities can be prepared, from totally water-soluble hydroxytyrosol or tyrosol derivatives when acetic acid is used in the formation of the ester to totally oil-soluble hydroxytyrosol or tyrosol derivatives when oleic acid is used in the formation of the ester. The hydroxytyrosol and tyrosol derivatives are hydrolyse in the intestinal tract of rats to their two components, hydroxytyrosol or tyrosol and the fatty acid. […] This implies that, after their hydrolysis, mentioned fatty acid esters can act as antioxidants to reduce or ameliorate diseases with an oxidative stress origin.
# [4] = Sensitivity to oxidation; assay type: physicochemical
# Excerpt: as §1
# [5] = Hydrolysis and absorption in rats; assay type: in vivo
# Excerpt: as §1
# [6] = biological target: T1, recombinant arNOX SF2 (Homo sapiens, UniProt Q99805, F637E); assay: Lipid oxidation catalyzed by H2O2 formed from recombinant arNOX-generated superoxide (SF2); assay type: biochemical; details: SF2 + lecithin + SOD + inhibitor, incubated 2 h; without inhibitor 0.12, without SOD 0.06
# T1 construct: made in house; host or cells: Escherichia coli BL21 (DE3), pET11a
# Excerpt: FIG. 4 illustrates the role of apoBNOX in the oxidation of the apoB protein associated with low density lipoprotein particles and the recognition of the oxidized LDL by macrophages, resulting in the formation of foam cells leading to fatty streaks and atherogenic plaques. In this scheme, the apoBNOX binds selectively to lipoprotein particle-associated apoB and withdraws electrons to form superoxide. The superoxide thus generated is converted to hydrogen peroxide by the action of superoxide dismutase. The hydrogen peroxide thus generated attacks lipids (particularly phosphatidylcholine) of the low density lipoprotein particles to form reactive lipid peroxides that then attack key lysine residues in the apoB. Evidence that superoxide generated by arNOX when converted to hydrogen peroxide is capable of oxidizing phosphatidylcholine is given by the data of Table 2.
Molecule,inhibition of apoBNOX [1],inhibition of arNOX activity of aging cells [2],further results
COC1=C(OC)C(=O)C(C/C=C(\C)CC/C=C(\C)CC/C=C(\C)CC/C=C(\C)CC/C=C(\C)CC/C=C(\C)CC/C=C(\C)CC/C=C(\C)CCC=C(C)C)=C(C)C1=O [CoQ9],relatively ineffective,inhibited,–
"OCCc1ccc(O)cc1 [Tyrosol, 4-hydroxyphenethyl alcohol]",–,–,"hydrophilicity / solubility [3]: hydrophilic; apoBNOX activity, % inhibition ([1]; 100 μM tyrosol): 70%; sensitivity to oxidation [4]: sensitive to oxidation; absorption ([5]; rat, in vivo): rapidly absorbed"
"OCCc1ccc(O)c(O)c1 [Hydroxytyrosol, hydroxytyrosol]",–,–,"hydrophilicity / solubility [3]: hydrophilic; absorption ([5]; rats, after hydrolysis of the esters, detected in plasma and cerebrospinal fluid): rapidly absorbed"
COC1=C(OC)C(=O)C(C/C=C(\C)CC/C=C(\C)CC/C=C(\C)CC/C=C(\C)CC/C=C(\C)CC/C=C(\C)CC/C=C(\C)CCC=C(C)C)=C(C)C1=O [CoQ8],relatively ineffective,inhibited,–
O=c1cc(-c2ccc(O)cc2)oc2cc(O)cc(O)c12 [apigenin],resist inhibition,–,–
"COC1=C(OC)C(=O)C(C/C=C(\C)CC/C=C(\C)CC/C=C(\C)CC/C=C(\C)CC/C=C(\C)CC/C=C(\C)CC/C=C(\C)CC/C=C(\C)CC/C=C(\C)CCC=C(C)C)=C(C)C1=O [CoQ, coenzyme Q10]",resist inhibition,inhibited,"Lipid oxidation, Relative units [6]: 0.06 cm; inhibition of apoBNOX ([1]; listed as CoQ10): relatively ineffective"
superoxide dismutase,resist inhibition; also recorded: resistant to inhibition,–,–
